Results on one molecule are retold here after publication PMC6938345, “Inhibition of complement activation, myeloperoxidase, NET formation and oxidant activity by PIC1 peptide variants” (PLoS ONE, 2019).

The series can be described thus: Peptide solubility in water. Here is the method:
(PA) (Table 1) were synthesized by New England Peptide (Gardner, MA) to >90% purity. Sarcosine variants and PEG were dissolved in water and the pH was adjusted with NaOH. PA was dissolved in DMSO and then brought up to the final concentration with water resulting in 30% DMSO and pH adjusted. Antibody sensitized sheep erythrocytes (EA), purified C1q and factor B-depleted human sera were purchased from Complement Technology (Tyler, TX). Purified myeloperoxidase was purchased from Lee BioSolutions (Maryland Heights, MO) and tetramethylbenzidine (TMB) and PicoGreen were purchased from Thermo Fisher (Waltham MA).
(PA), peptide derivatives were synthesized with sarcosine residues substituted at all 15 positions, included a peptide in which the vicinal cysteines at positions 9 and 10 (C9,C10) were replaced with a single sarcosine residue (Table 1).

Where a SMILES comes first, the peptide text is derived from it. [ ]: non-standard residue; d: D form. Sar = CNCC(=O)O

As for `CC[C@H](C)[C@H](N)C(=O)N[C@@H](C)C(=O)N[C@@H](CC(C)C)C(=O)N[C@H](C(=O)N[C@@H](CC(C)C)C(=O)N[C@@H](CCC(=O)O)C(=O)N1CCC[C@H]1C(=O)N[C@H](C(=O)N(C)CC(=O)N[C@@H](CCC(N)=O)C(=O)N[C@@H](CCC(=O)O)C(=O)N[C@@H](CCCNC(=N)N)C(=O)N[C@@H](C)C(=O)N[C@@H](C)C(=O)O)[C@@H](C)CC)[C@@H](C)CC` [C9,10] (H-IALILEPI[Sar]QERAA-OH), the “solubility in water (in words)” value is on record as “soluble in water”.
